The source made the active and inactive calls. No rule for the calls is given here.
System: CCRIS mutagenicity, Ames/micronucleus/aberration tests
Assay: CCRIS mutagenicity studies
[1] = Test System: AMES SALMONELLA TYPHIMURIUM, Strain/Indicator: TA98, Metabolic Activation: NONE, Method: STANDARD PLATE
[2] = Test System: AMES SALMONELLA TYPHIMURIUM, Strain/Indicator: TA100, Metabolic Activation: NONE, Method: STANDARD PLATE
[3] = Test System: AMES SALMONELLA TYPHIMURIUM, Strain/Indicator: TA1537, Metabolic Activation: NONE, Method: STANDARD PLATE

**Q.** Which results are given for `O=C(Nc1ccc(Br)cc1)c1cc(Br)cc(Br)c1O`?
**A.** mutagenic call [1]: inactive; negative; mutagenic call (Test System: AMES SALMONELLA TYPHIMURIUM, Strain/Indicator: TA98, Metabolic Activation: RAT, LIVER, S-9, KANECHLOR 400, Method: STANDARD PLATE): inactive; negative; mutagenic call [2]: inactive; negative; mutagenic call (Test System: AMES SALMONELLA TYPHIMURIUM, Strain/Indicator: TA100, Metabolic Activation: RAT, LIVER, S-9, KANECHLOR 400, Method: STANDARD PLATE): inactive; negative; mutagenic call (Test System: AMES SALMONELLA TYPHIMURIUM, Strain/Indicator: TA1535, Metabolic Activation: NONE, Method: STANDARD PLATE): inactive; negative; mutagenic call (Test System: AMES SALMONELLA TYPHIMURIUM, Strain/Indicator: TA1535, Metabolic Activation: RAT, LIVER, S-9, KANECHLOR 400, Method: STANDARD PLATE): inactive; negative; mutagenic call [3]: inactive; negative; mutagenic call (Test System: AMES SALMONELLA TYPHIMURIUM, Strain/Indicator: TA1537, Metabolic Activation: RAT, LIVER, S-9, KANECHLOR 400, Method: STANDARD PLATE): inactive; negative; mutagenic call (Test System: AMES SALMONELLA TYPHIMURIUM, Strain/Indicator: TA1538, Metabolic Activation: NONE, Method: STANDARD PLATE): inactive; negative; mutagenic call (Test System: AMES SALMONELLA TYPHIMURIUM, Strain/Indicator: TA1538, Metabolic Activation: RAT, LIVER, S-9, KANECHLOR 400, Method: STANDARD PLATE): inactive; negative

**Q.** What does the source list for `O=c1[nH]cc(F)c(=O)[nH]1`?
**A.** mutagenic call (End Point: IN VITRO MICRONUCLEUS, Test System: CHL/IU CELLS, Metabolic Activation: NONE): active; positive; mutagenic call (End Point: IN VIVO CHROMOSOMAL ABERRATIONS, Test System: BONE MARROW CELLS, Species: MOUSE, Strain/Sex: SWISS/MALE, FEMALE, Route: IP): active; positive (aberrant metaphases); mutagenic call (End Point: IN VIVO MICRONUCLEUS, Test System: BLOOD ERYTHROCYTES, Species: MOUSE, Strain/Sex: CD-1/MALE, Route: INTRAPERITONEAL INJECTION): active; positive (at highest dose); mutagenic call (End Point: IN VIVO MICRONUCLEUS, Test System: BONE MARROW POLYCHROMATIC ERYTHROCYTES, Species: MOUSE, Strain/Sex: SWISS/MALE, FEMALE, Route: IP): active; positive; mutagenic call (End Point: In vitro micronucleus, Test System: Human lymphoblastoid TK6 cells, Metabolic Activation: None): active; positive (p<0.001); mutagenic call (End Point: In vivo micronucleus, Test System: Micronucleated hepatocytes, Species: Rat, Strain/Sex: F344/Male, Route: Intraperitoneal): inactive; negative; mutagenic call (Test System: AMES SALMONELLA TYPHIMURIUM, Strain/Indicator: TA98, Metabolic Activation: HAMSTER, LIVER, S-9, AROCLOR 1254 (10%), Method: PREINCUBATION): inactive; negative; mutagenic call (Test System: AMES SALMONELLA TYPHIMURIUM, Strain/Indicator: TA98, Metabolic Activation: NONE, Method: PREINCUBATION): inactive; negative; mutagenic call [1]: inactive; negative; mutagenic call (Test System: AMES SALMONELLA TYPHIMURIUM, Strain/Indicator: TA98, Metabolic Activation: RAT, LIVER, S-9, AROCLOR 1254 (10%), Method: PREINCUBATION): inactive; negative; mutagenic call (Test System: AMES SALMONELLA TYPHIMURIUM, Strain/Indicator: TA98, Metabolic Activation: S-9, Method: PREINCUBATION): inactive; negative; mutagenic call (Test System: AMES SALMONELLA TYPHIMURIUM, Strain/Indicator: TA98, Metabolic Activation: S-9, Method: STANDARD PLATE): inactive; negative; mutagenic call (Test System: AMES SALMONELLA TYPHIMURIUM, Strain/Indicator: TA100, Metabolic Activation: HAMSTER, LIVER, S-9, AROCLOR 1254 (10%), Method: PREINCUBATION): inactive; negative; mutagenic call (Test System: AMES SALMONELLA TYPHIMURIUM, Strain/Indicator: TA100, Metabolic Activation: NONE, Method: PREINCUBATION): inactive; negative; mutagenic call [2]: inactive; negative; mutagenic call (Test System: AMES SALMONELLA TYPHIMURIUM, Strain/Indicator: TA100, Metabolic Activation: RAT, LIVER, S-9, AROCLOR 1254 (10%), Method: PREINCUBATION): inactive; negative; mutagenic call (Test System: AMES SALMONELLA TYPHIMURIUM, Strain/Indicator: TA100, Metabolic Activation: S-9, Method: PREINCUBATION): inactive; negative; mutagenic call (Test System: AMES SALMONELLA TYPHIMURIUM, Strain/Indicator: TA100, Metabolic Activation: S-9, Method: STANDARD PLATE): inactive; negative; mutagenic call (Test System: AMES SALMONELLA TYPHIMURIUM, Strain/Indicator: TA102, Metabolic Activation: NONE, Method: STANDARD PLATE): inactive; negative; mutagenic call (Test System: AMES SALMONELLA TYPHIMURIUM, Strain/Indicator: TA1535, Metabolic Activation: HAMSTER, LIVER, S-9, AROCLOR 1254 (10%), Method: PREINCUBATION): inactive; negative; mutagenic call (Test System: AMES SALMONELLA TYPHIMURIUM, Strain/Indicator: TA1535, Metabolic Activation: NONE, Method: PREINCUBATION): inactive; negative; mutagenic call (Test System: AMES SALMONELLA TYPHIMURIUM, Strain/Indicator: TA1535, Metabolic Activation: RAT, LIVER, S-9, AROCLOR 1254 (10%), Method: PREINCUBATION): inactive; negative; mutagenic call (Test System: AMES SALMONELLA TYPHIMURIUM, Strain/Indicator: TA1537, Metabolic Activation: HAMSTER, LIVER, S-9, AROCLOR 1254 (10%), Method: PREINCUBATION): inactive; negative; mutagenic call (Test System: AMES SALMONELLA TYPHIMURIUM, Strain/Indicator: TA1537, Metabolic Activation: NONE, Method: PREINCUBATION): inactive; negative; mutagenic call [3]: inactive; negative; mutagenic call (Test System: AMES SALMONELLA TYPHIMURIUM, Strain/Indicator: TA1537, Metabolic Activation: RAT, LIVER, S-9, AROCLOR 1254 (10%), Method: PREINCUBATION): inactive; negative; mutagenic call (Test System: AMES SALMONELLA TYPHIMURIUM, Strain/Indicator: TA2638, Metabolic Activation: NONE, Method: STANDARD PLATE): inactive; negative; mutagenic call (Test System: E. COLI, Strain/Indicator: WP2 (HCR), Metabolic Activation: NONE, Method: STANDARD PLATE): inactive; negative; mutagenic call (Test System: E. COLI, Strain/Indicator: WP2 (HCR), Metabolic Activation: S-9, Method: STANDARD PLATE): inactive; negative; mutagenic call (Test System: E. COLI, Strain/Indicator: WP2 (PKM101), Metabolic Activation: NONE, Method: STANDARD PLATE): inactive; negative; mutagenic call (Test System: E. COLI, Strain/Indicator: WP2 UVRA (PKM101), Metabolic Activation: NONE, Method: STANDARD PLATE): inactive; negative; mutagenic call (Test System: MOUSE LYMPHOMA, Strain/Indicator: L5178Y (TK+/TK-), Metabolic Activation: NONE, Method: MICROWELL): active; positive; mutagenic call (Test System: MOUSE LYMPHOMA, Strain/Indicator: L5178Y (TK+/TK-), Metabolic Activation: S-9, Method: MICROWELL): active; positive

**Q.** Which mutagenic call (Test System: AMES SALMONELLA TYPHIMURIUM, Strain/Indicator: TA97, Metabolic Activation: NONE, Method: PREINCUBATION) does the source give for `CC(C)(C)C1=CC(=O)C=CC1=O` here?
**A.** inactive; negative

**Q.** What about the mutagenic call (Test System: AMES SALMONELLA TYPHIMURIUM, Strain/Indicator: TA97, Metabolic Activation: RAT, LIVER, S-9, PCB, Method: PREINCUBATION) of the same molecule?
**A.** inactive; negative

**Q.** And the mutagenic call [1]?
**A.** inactive; negative

**Q.** What about the mutagenic call (Test System: AMES SALMONELLA TYPHIMURIUM, Strain/Indicator: TA98, Metabolic Activation: RAT, LIVER, S-9, AROCLOR 1254, Method: PREINCUBATION) of the same molecule?
**A.** inactive; negative

**Q.** What about the mutagenic call (Test System: AMES SALMONELLA TYPHIMURIUM, Strain/Indicator: TA98, Metabolic Activation: RAT, LIVER, S-9, AROCLOR 1254, Method: STANDARD PLATE) of the same molecule?
**A.** inactive; negative

**Q.** And the mutagenic call (Test System: AMES SALMONELLA TYPHIMURIUM, Strain/Indicator: TA98, Metabolic Activation: RAT, LIVER, S-9, PCB, Method: PREINCUBATION)?
**A.** inactive; negative

**Q.** What about the mutagenic call [2] of the same molecule?
**A.** inactive; negative

**Q.** What about the mutagenic call (Test System: AMES SALMONELLA TYPHIMURIUM, Strain/Indicator: TA100, Metabolic Activation: RAT, LIVER, S-9, AROCLOR 1254, Method: PREINCUBATION) of the same molecule?
**A.** inactive; negative

**Q.** What about the mutagenic call (Test System: AMES SALMONELLA TYPHIMURIUM, Strain/Indicator: TA100, Metabolic Activation: RAT, LIVER, S-9, AROCLOR 1254, Method: STANDARD PLATE) of the same molecule?
**A.** inactive; negative

**Q.** What about the mutagenic call (Test System: AMES SALMONELLA TYPHIMURIUM, Strain/Indicator: TA100, Metabolic Activation: RAT, LIVER, S-9, PCB, Method: PREINCUBATION) of the same molecule?
**A.** inactive; negative

**Q.** What about the mutagenic call (Test System: AMES SALMONELLA TYPHIMURIUM, Strain/Indicator: TA102, Metabolic Activation: NONE, Method: PREINCUBATION) of the same molecule?
**A.** inactive; negative

**Q.** And the mutagenic call (Test System: AMES SALMONELLA TYPHIMURIUM, Strain/Indicator: TA102, Metabolic Activation: RAT, LIVER, S-9, PCB, Method: PREINCUBATION)?
**A.** inactive; negative

**Q.** What about the mutagenic call (Test System: CHINESE HAMSTER V-79, Strain/Indicator: V-79 (HGPRT)/6-THIOGUANINE, Metabolic Activation: NONE) of the same molecule?
**A.** inactive; negative

**Q.** And the mutagenic call (Test System: CHINESE HAMSTER V-79, Strain/Indicator: V-79 (HGPRT)/6-THIOGUANINE, Metabolic Activation: RAT, LIVER, HEPATOCYTES)?
**A.** inactive; negative

— PubChem BioAssay AID1259407 (Chemical Carcinogenesis Research Information System (CCRIS), 2018)
